*: point of attachment. Biotin = O=C1N[C@H]2[C@H](CS[C@H]2CCCCC(=O)*)N1
Assays:
normal mouse serum = settings: 37° C.

| Substance | cleaved bond (normal mouse serum; up to 6 h) | cleaved bond (normal mouse serum; up to 24 h) | further results |
| --- | --- | --- | --- |
| Biotin-CAVPNLRGDLQVLAQKVCRTK-NH2 (cysteine pairing not given here) [C1C18 DFBP] | C18-arginine19, 2 h |  |  |
| acetyl-NCVPhNLRGDLQVLADQKVCRDTKD-biotin [C2C18 Ph AD RDTKD DFBP] |  |  | cell surface half-life (internalization) (BxPC-3 cells): 11.93 min |
| biotin-NCVPhNLRGDLQVLAQKVCRDTKAD-amide |  | Asn1-C2 |  |

Second part, led by results:

| cleaved bond (normal mouse serum; up to 6 h) | cleaved bond (normal mouse serum; up to 24 h) | Substance | further results |
| --- | --- | --- | --- |
| C18-arginine19 |  | Biotin-CAVPNLRGDLQVLAQKVCRTK-NH2 (cysteine pairing not given here) |  |
|  | Asn1-C2 | Biotin-NCVPNLRGDLQVLAQKVCRDTKAD-NH2 (cysteine pairing not given here) |  |
| C18-arginine19, 2 h |  | Biotin-NCVPNLRGDLQVLAQKVCRTK-NH2 (cysteine pairing not given here) |  |

From patent US20240209034A1 (priority 2021, published 2024)
